Data reported in US20040224981A1, “Antibacterial methods and compositions” (priority 2003, published 2004).
Read-outs that look alike come from different tables or passages of the source.

Legend:
S. epidermidis = experiment: MIC against S. epidermidis; type: cell-based; settings: Staphylococcus epidermidis, Table 4, read-out: MIC
Experimental: (§1) The MRS inhibitor 4 alone and in combination with mupirocin (mupirocin salt and 1:1 combination) were tested against a collection of Gram-positive pathogens.
(§2) The MRS inhibitor 8 was also prepared as a fusidate and mupirocinate salt and tested for antibacterial activity against Gram-positive bacteria (Table 3). […] MRSi compound 8 alone and the fusidate and mupirocin salts were active against mupirocin-resistant S. aureus and S. epidermidis and organisms such as E. faecalis that are not susceptible to mupirocin.
(§3) The MRS inhibitor 5 acetate and mupirocin salts were tested against a collection of Gram-positive bacteria.

S. aureus = experiment: MIC against S. aureus strains and clinical isolates (broth microdilution); type: cell-based, Staphylococcus aureus; settings: for MIC / MIC50 / MIC90: Staphylococcus aureus; for MIC50: read-out: MIC50; for MIC90: read-out: MIC90
Outline: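 Broth microdilution per NCCLS in cation-supplemented Mueller-Hinton broth, final inoculum 5×10^5 CFU/ml from 0.5 McFarland suspensions diluted 1:10. Trays incubated aerobically overnight with quality control strains each run. Checkerboard FIC index: ≦0.5 synergy, >0.5 to 4 additive/indifferent, >4.0 antagonism.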

S. hemolyticus = experiment: MIC against S. hemolyticus; type: cell-based; settings: Table 4, read-out: MIC
Experimental: as §1, §2, §3

S. pyogenes = experiment: MIC against S. pyogenes; type: cell-based, Streptococcus pyogenes; settings: for MIC: Streptococcus pyogenes, Table 4, read-out: MIC
Experimental: as §1
S. pyogenes is also a significant skin pathogen and 48 recent clinical isolates were tested for their susceptibility to MRSi compound 5 alone (acetate) and in combination (1:1) with mupirocin (mupirocinate).

[1] = system: MRS-resistant mutants of S. aureus; experiment: Susceptibility (MIC) of MRS-resistant mutants of S. aureus; type: cell-based; settings: Staphylococcus aureus
Experimental: MRS-resistant mutants generated in vitro in either serial passage or spontaneous resistance development studies were evaluated for susceptibility to mupirocin alone and in a 1:1 combination with MRSi compound 5.

E. faecalis = experiment: MIC against E. faecalis; type: cell-based; settings: for Range (MIC): in µg/mL; for MIC: Enterococcus faecalis, read-out: MIC
[2] = all S. aureus isolates of Table 6
[3] = oxacillin-resistant S. aureus, Oxa-R (42)
[4] = oxacillin-susceptible S. aureus, Oxa-S (20)
[5] = recent clinical isolates of S. aureus, All (62)
[6] = 48 recent clinical isolates of S. pyogenes
[7] = recent clinical isolates of E. faecalis, ALL (28)

C=C(F)c1sc(CNCCCNc2cc(=O)c3ccccc3[nH]2)c(C)c1Br [MRSi Cmpd 5 acetate, N-(4-bromo-5-(1-fluorovinyl)-3-methylthiophen-2-ylmethyl)-N′-(1H-quinolin-4-one)propane-1,3-diamine]
0.25 µg/mL: MIC (S. epidermidis; S. epidermidis NRS6) | MIC (S. aureus; ATCC43300, Table 4, S. aureus ATCC 43300 (ORSA), read-out: MIC) | MIC (S. hemolyticus; S. hemolyticus NRS116)
8 µg/mL: MIC ([1]; S. aureus SP-1B5, metS I57N)
0.03 to 0.25: MIC Range (S. pyogenes; 48 recent clinical isolates of S. pyogenes, in µg/mL)
< 0.004 µg/mL: MIC50 (E. faecalis; E. faecalis, Van-R(11)) | Mode (MIC) (E. faecalis; E. faecalis, Van-R(11)) | MIC50 (E. faecalis; [7]) | Mode (MIC) (E. faecalis; [7])
0.015 µg/mL: MIC (S. aureus; NRS 1 / VISA, VISA, S. aureus NRS1 (Mu50), read-out: MIC) | MIC (S. aureus; Table 6, high-level mupirocin-resistant S. aureus LZ1, read-out: MIC) | MIC (S. aureus; Table 6, low-level mupirocin-resistant S. aureus 014-354, read-out: MIC) | MIC (S. aureus; Table 6, low-level mupirocin-resistant S. aureus 031-1334, read-out: MIC) | MIC90 (E. faecalis; E. faecalis, Van-R(11)) | MIC (E. faecalis; ATCC29212, Table 4, E. faecalis ATCC 29212) | MIC (E. faecalis; Table 4, E. faecalis 7) | MIC90 (E. faecalis; [7])
0.06 µg/mL: MIC (S. epidermidis; S. epidermidis NRS7) | MIC (S. aureus; ATCC29213, Table 4, S. aureus ATCC 29213, read-out: MIC) | MIC (S. aureus; NRS 24 / VISA, VISA, S. aureus NRS24 (HIP09143), read-out: MIC) | MIC (S. aureus; NRS54, Table 6, high-level mupirocin-resistant S. aureus NRS54, read-out: MIC) | MIC (S. aureus; NRS 54 / VISA, VISA, S. aureus NRS54 (Brazil), read-out: MIC) | MIC (S. aureus; Table 6, S. aureus (mupirocin-susceptible) 087-2789, read-out: MIC) | MIC (S. aureus; Table 6, high-level mupirocin-resistant S. aureus 1079101, read-out: MIC) | MIC (S. aureus; Table 6, high-level mupirocin-resistant S. aureus LZ6, read-out: MIC) | MIC90 (S. aureus; [4]) | MIC (S. aureus; oxacillin-susceptible S. aureus, Oxa-S (20), read-out: MIC Mode) | MIC (S. aureus; recent clinical isolates of S. aureus, All (62), read-out: MIC Mode) | MIC50 (S. pyogenes; [6]) | Mode (MIC) (S. pyogenes; [6]) | MIC ([1]; ATCC29213, S. aureus ATCC 29213, metS wild-type) | MIC ([1]; ATCC43300, S. aureus ATCC 43300, metS wild-type)
0.008 to 0.25 µg/mL: MIC (S. aureus; VISA, all 8 vancomycin-intermediate S. aureus (VISA) isolates, read-out: MICs ranging)
≦0.008 to 0.12 μg/mL: MIC Range (S. aureus; [4])
≤ 0.008 µg/mL: MIC (S. aureus; NRS107, Table 4, S. aureus NRS107 (mupA), read-out: MIC) | MIC (S. aureus; NRS107, Table 6, high-level mupirocin-resistant S. aureus NRS107, read-out: MIC) | MIC (S. aureus; Table 6, low-level mupirocin-resistant S. aureus 036-1298, read-out: MIC) | MIC (S. aureus; Table 6, low-level mupirocin-resistant S. aureus Miles Hall, read-out: MIC)
<0.004-0.015: Range (MIC) (E. faecalis; E. faecalis, Van-R(11)) | Range (MIC) (E. faecalis; E. faecalis, Van-S (16)) | Range (MIC) (E. faecalis; [7])
0.5 µg/mL: MIC (S. aureus; NRS127, Table 6, low-level mupirocin-resistant S. aureus NRS127, read-out: MIC) | MIC (S. aureus; Table 6, low-level mupirocin-resistant S. aureus 1081148, read-out: MIC) | MIC90 (S. aureus; [2]) | MIC90 (S. aureus; [3])
≦0.008 to 1 μg/mL: MIC Range (S. aureus; [3]) | MIC Range (S. aureus; [5])
0.004 µg/mL: MIC (E. faecalis; Table 4, E. faecalis 1)
0.008 µg/mL: MIC (S. aureus; NRS 3 / VISA, VISA, S. aureus NRS3 (HIP5827), read-out: MIC) | MIC (S. aureus; NRS 4 / VISA, VISA, S. aureus NRS4 (HIP5836), read-out: MIC) | MIC (S. aureus; NRS 49 / VISA, VISA, S. aureus NRS49 (Korea), read-out: MIC) | MIC (S. aureus; NRS 56 / VISA, VISA, S. aureus NRS56 (Brazil), read-out: MIC) | MIC90 (E. faecalis; E. faecalis, Van-S (16))
0.03 µg/mL: MIC (S. aureus; NRS 18 / VISA, VISA, S. aureus NRS18 (HIP06854), read-out: MIC) | MIC (S. aureus; Table 6, S. aureus (mupirocin-susceptible) 010-100, read-out: MIC) | MIC (S. aureus; Table 6, S. aureus (mupirocin-susceptible) LZ9, read-out: MIC) | MIC (S. aureus; Table 6, S. aureus (mupirocin-susceptible) LZ10, read-out: MIC) | MIC (S. aureus; Table 6, high-level mupirocin-resistant S. aureus 010-420, read-out: MIC) | MIC (S. aureus; Table 6, high-level mupirocin-resistant S. aureus 25-670, read-out: MIC) | MIC (S. aureus; Table 6, high-level mupirocin-resistant S. aureus 87-2797, read-out: MIC) | MIC (S. aureus; Table 6, low-level mupirocin-resistant S. aureus LZ8, read-out: MIC) | MIC50 (S. aureus; [2]) | MIC50 (S. aureus; [3]) | MIC (S. aureus; oxacillin-resistant S. aureus, Oxa-R (42), read-out: MIC Mode) | MIC50 (S. aureus; [4]) | MIC50 (S. aureus; [5])
0.12 µg/mL: MIC (S. epidermidis; S. epidermidis NRS8) | MIC90 (S. aureus; [5]) | MIC (S. hemolyticus; S. hemolyticus NRS50) | MIC90 (S. pyogenes; [6]) | MIC (S. pyogenes; ATCC19615, S. pyogenes ATCC 19615) | MIC (S. pyogenes; S. pyogenes MB000143)
16 µg/mL: MIC ([1]; S. aureus SP-2B5, metS I57N, R100S) | MIC ([1]; S. aureus SP-2D4, metS I57N)
4 µg/mL: MIC ([1]; S. aureus SP-1A2, metS A247E) | MIC ([1]; S. aureus SP-2C4, metS L213W) | MIC ([1]; S. aureus SP-9B5, metS I57N, V296F) | MIC ([1]; S. aureus SP-21A, metS A77V) | MIC ([1]; S. aureus SR1, metS I57N)
≦0.004: MIC50 (E. faecalis; E. faecalis, Van-S (16)) | Mode (MIC) (E. faecalis; E. faecalis, Van-S (16))
≦0.008-0.5 μg/mL: MIC Range (S. aureus; [2])
